Measurements taken from patent US5627143A, “Wellbore fluid” (Dowell Schlumberger Incorporated, priority 1993, dated 1997).
Like-named read-outs stand apart in the source and are kept apart here.

Legend:
Format in all cases: physicochemical
[1] = Example 5: visible fluorescence under ultraviolet illumination
Description: A sample of C14-16 linear alphaolefin was placed under ultraviolet illumination and its visible fluorescence noted. The fluorescence was compared to that of some other known base oils.

[2] = Kinematic viscosity (KV) of base oils
Description: KV: The kinematic viscosity of an oil in centistokes.
(§1) Some properties of alk-1-enes of carbon number between 12 and 20 are shown in Table 1 (which appears at the end of this description) and compared with an ester oil, a linear alkyl benzene, and a polyalphaolefin.

[3] = Flash point of base oils
Description: as §1

[4] = Pour point of base oils
Description: as §1

Row | Structure (SMILES) | Fluorescence (colour) ([1]; continued lines of the cell) | Fluorescence (intensity) ([1]; first printed line of the cell) | KV at 40° C. ([2]; 40° C.) | KV at 40° C. [2] | Flash Point [3] | Pour Point [4]
1 | CCCCCCCC/C=C\CCCCCCCC(=O)OCC(CC)CCCC (stereo not drawn) [2-ethylhexyl oleate] | white | Medium | – | – | – | –
2 | C=CCCCCCCCCCC [C12] | – | – | – | 1.29 Cst | 77 °C | -35 °C
3 | C=CCCCCCCCCCCCCCC [C16] | – | – | – | 2.62 Cst | – | +4 °C

Further lines, with some results ahead:

Row | Fluorescence (colour) ([1]; continued lines of the cell) | Fluorescence (intensity) ([1]; first printed line of the cell) | KV at 40° C. ([2]; 40° C.) | Structure (SMILES) | KV at 40° C. [2] | Flash Point [3] | Pour Point [4]
4 | – | – | 1.85 Cst | C=CCCCCCCCCCCCC [C14] | – | 107 °C | -13 °C
5 | – | – | 3.59 Cst | C=CCCCCCCCCCCCCCCCC [C18] | – | – | +18 °C
